According to US20250179022A1, “COMPOUND USED AS TYK2 INHIBITOR, PREPARATION METHOD THEREFOR, AND PHARMACEUTICAL USE THEREOF” (SHANGHAI ZHIGEN PHARMACEUTICAL & TECHNOLOGY CO. LTD., priority 2022, published 2025):
One block for each compound: values may come before it.

Legend:
[1] = target: T1, TYK2 (Homo sapiens, UniProt P29597, E957D); test: TYK2 kinase activity inhibition assay (Ba/F3-FL-TYK2-E957D cell proliferation, CellTiter-Glo); type: cell-based; settings: 72 h
T1 construct: host or cells: Ba/F3 (murine B lymphocytes)
T1 sequence (P29597 whole entry E957D): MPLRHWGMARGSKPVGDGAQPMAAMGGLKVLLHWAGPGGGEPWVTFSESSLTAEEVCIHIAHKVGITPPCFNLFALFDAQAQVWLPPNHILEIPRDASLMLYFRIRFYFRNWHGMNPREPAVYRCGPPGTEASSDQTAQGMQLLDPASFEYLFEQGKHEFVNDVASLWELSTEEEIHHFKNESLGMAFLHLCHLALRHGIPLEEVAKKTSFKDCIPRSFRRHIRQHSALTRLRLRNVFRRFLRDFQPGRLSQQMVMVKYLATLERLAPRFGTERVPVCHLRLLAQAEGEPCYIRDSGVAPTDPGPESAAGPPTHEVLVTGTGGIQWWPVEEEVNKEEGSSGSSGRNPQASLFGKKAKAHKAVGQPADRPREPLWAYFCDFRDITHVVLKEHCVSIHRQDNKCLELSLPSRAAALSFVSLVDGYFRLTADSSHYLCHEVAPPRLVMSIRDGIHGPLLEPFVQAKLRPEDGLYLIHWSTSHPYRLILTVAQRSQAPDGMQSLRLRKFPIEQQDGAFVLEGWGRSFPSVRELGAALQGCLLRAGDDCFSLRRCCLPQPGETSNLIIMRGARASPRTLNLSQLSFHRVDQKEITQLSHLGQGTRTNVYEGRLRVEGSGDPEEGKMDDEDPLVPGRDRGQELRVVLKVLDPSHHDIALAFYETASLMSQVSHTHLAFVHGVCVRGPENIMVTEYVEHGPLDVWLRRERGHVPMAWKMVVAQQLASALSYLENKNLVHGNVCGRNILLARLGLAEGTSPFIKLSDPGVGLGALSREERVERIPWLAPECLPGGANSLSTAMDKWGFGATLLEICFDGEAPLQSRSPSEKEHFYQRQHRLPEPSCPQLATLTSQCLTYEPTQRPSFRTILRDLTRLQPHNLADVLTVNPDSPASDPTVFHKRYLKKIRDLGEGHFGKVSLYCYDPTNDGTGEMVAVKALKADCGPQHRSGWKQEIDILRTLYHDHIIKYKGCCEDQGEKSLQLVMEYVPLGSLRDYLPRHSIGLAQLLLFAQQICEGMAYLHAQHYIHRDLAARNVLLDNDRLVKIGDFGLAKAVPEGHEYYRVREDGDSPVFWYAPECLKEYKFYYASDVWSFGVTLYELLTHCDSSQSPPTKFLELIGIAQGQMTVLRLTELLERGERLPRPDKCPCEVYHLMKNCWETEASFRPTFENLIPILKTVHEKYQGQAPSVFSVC
Method: The TYK2 kinase gene was introduced into wild-type murine-derived B lymphocytes (BaF3) to construct the Ba/F3-FL-TYK2-E957D stable cell line.
In this experiment, the inhibitory effect of the compounds on the proliferation of Ba/F3-FL-TYK2-E957D cells were tested, apoptosis was detected, and the IC50 value was calculated. The inhibitory activity of the compounds against TYK2 kinase was evaluated based on the IC50 value.
The tested compounds, powder and stored at room temperature, were prepared into 10 mM stock solution with DMSO and stored at −20° C. away from light for use.
Compounds were prepared into dilute solutions which was 1000 times of the final concentration. The compound was prepared into 20-times of the final concentration by diluting the compound with culture medium. 2 ul of 1000-times compound was added to per well to 98 ul of culture medium.
Cells (provided by Sundia Pharmaceutical Technology (Shanghai) Co., Ltd.) were resuspended and counted using an automated cell counter. The cell suspension was diluted to the desired density based on BaF3 seeding density of 2000 cells per well. Each well was plated with 95 ul of cells and incubated at 37° C. for stable equilibrium. 5 ul of 20-times compound was added to each well, with the wells to which the same volume of DMSO was added as a control.
The cell plate was equilibrated to room temperature. 40 ul CellTiter-Glo® Reagent was added to each well, shaken for 2 minutes and allowed to stand for 10 minutes. Detected with SpectraMax Paradigm.
• (1) IC50 was calculated using GraphPad Prism 5. • (2) % Inh=(Max signal−Compound signal)/(Max signal−Min signal)×100. • (3) Max signal was the positive control well with only the same volume of DMSO as the compound. • (4) Min signal was the negative control well with only the culture medium.

[2] = In vivo pharmacokinetic experiments in Beagle dogs (oral); settings: for Cmax / MRT / half-life: male, dog, plasma
Method: Experimental Methods: Healthy male Beagle dogs were randomly grouped into 3 […] in each group, and were given the test compounds orally. Before the gavage experiment, the dogs were fasted for 12 h, drank water freely, and were uniformly fed for 4 h after the administration of the drug. 0.083, 0.25, 0.5, 1.0, 2.0, 4.0, 6.0, 8.0, 10 and 24 h after administration; about 600 μL of blood was collected from the forelimb or hindlimb at the above set time points and placed in EDTA-K2 tubes, and the whole blood was collected and stored temporarily in an ice-water bath, and then centrifuged at least 3500 rpm for 10 min within 30 min, and the plasma was separated and frozen in a −70° C. refrigerator for testing.

[3] = In vivo pharmacokinetic experiment in rats (oral); design: species or system SD rats; settings: 20 mg/kg
Method: Experimental method: Healthy male SD rats were randomly grouped into 3 rats in each group and given the test compound orally. The rats were fasted for 12 h before the gavage experiment, and drank water freely, and were fed uniformly for 4 h after the administration of the compounds. Before (0 h) and 0.25, 0.5, 1.0, 2.0, 4.0, 6.0, 8.0 and 24 h after the administration of the test compounds, 0.2 mL of blood was collected from the jugular vein at the above set time points and placed in EDTA-K2 tubes, and the whole blood was collected and stored temporarily in an ice-water bath, and then centrifuged at 11,000 rpm for 5 min within 30 min, the plasma was separated, and frozen at −70° C. in a refrigerator for testing.

Structure (SMILES): [2H]C([2H])([2H])NC(=O)c1nnc(NC(=O)C2CC2)cc1Nc1ncccc1S(C)(=O)=NC (stereo not drawn) [Example 2, 6-(cyclopropylcarboxamido)-4-((3-(N,S-dimethylsulfoximino)pyridin-2-yl)amino)-N-(methyl-d3)pyridazine-3-carboxamide]
IC50 [1]: 2.4 nM

Structure (SMILES): CN=S(C)(=O)c1cc(Br)cnc1Nc1cc(NC(=O)C2CC2)nnc1C(=O)NC (stereo not drawn) [Example 13, 4-((5-bromo-3-(N,S-dimethylsulfoximino)pyridin-2-yl)amino)-6-(cyclopropylcarboxamido)-N-methylpyridazine-3-carboxamide]
IC50 [1]: 3.9 nM

Structure (SMILES): CN=S(C)(=O)c1cc(OC)cnc1Nc1cc(NC(=O)C2CC2)nnc1C(=O)NC (stereo not drawn) [Example 14, 6-(cyclopropylamido)-4-((3-(N,S-dimethylsulfoximino)-5-methoxypyridin-2-yl)amino)-N-methylpyridazine-3-carboxamide]
IC50 [1]: 3.7 nM

Structure (SMILES): CN=S(C)(=O)c1cc(OCCCOC)cnc1Nc1cc(NC(=O)C2CC2)nnc1C(=O)NC (stereo not drawn) [Example 16, 6-(cyclopropylcarboxamido)-4-((3-(N,S-dimethylsulfoximino)-5-(3-methoxypropoxy)pyridin-2-yl)amino)-N-methylpyridazine-3-carboxamide]
IC50 [1]: 3.5 nM

Structure (SMILES): [2H]C([2H])([2H])NC(=O)c1nnc(NC(=O)C2CC2)cc1Nc1nc(N)c(Br)cc1[S@@](C)(=O)=NC [Example 30, (R)-4-((6-amino-5-bromo-3-(N,S-dimethylsulfoximino)pyridin-2-yl)amino)-6-(cyclopropylformyl)-N-(methyl-d3)pyridazine-3-carboxamide]
AUC ([2]; 2 mg/kg): 8454 ngh/mL
Cmax ([2]; 2 mg/kg): 625 ng/mL
MRT ([2]; 2 mg/kg): 11.8 h
half-life ([2]; 2 mg/kg): 8.61 h

Structure (SMILES): CN=S(C)(=O)c1cc2cc[nH]c2nc1Nc1cc(NC(=O)C2CC2)nnc1C(=O)NC (stereo not drawn) [Example 31, 6-(cyclopropylcarboxamido)-4-((5-(N,S-dimethylsulfoximino)-1H-pyrrolo[2,3-b]pyridin-6-yl)amino)-N-methylpyridazine-3-carboxamide]
IC50 [1]: 1.1 nM

Structure (SMILES): CN=S(C)(=O)c1cc2c(Cl)c(Cl)[nH]c2nc1Nc1cc(NC(=O)C2CC2)nnc1C(=O)NC (stereo not drawn) [Example 33, 6-(cyclopropylamido)-4-((2,3-dichloro-5-(N,S-dimethylsulfoximino)-1H-pyrrolo[2,3-b]pyridin-6-yl)amino)-N-methylpyridazine-3-carboxamide]
IC50 [1]: 1.2 nM

Structure (SMILES): [2H]C([2H])([2H])N=[S@](C)(=O)c1cc(I)c(N)nc1Nc1cc(NC(=O)C2CC2)nnc1C(=O)NC([2H])([2H])[2H] [Example 42, (R)-4-((6-amino-5-iodo-3-(S-methyl-N-(methyl-d3)sulfonylimino)pyridin-2-yl)amino)-6-(cyclopropylcarboxamide)-N-(methyl-d3)pyridazine-3-carboxamide]
IC50 [1]: 0.4 nM

Structure (SMILES): [2H]C([2H])([2H])N=[S@](C)(=O)c1cc(C2CC2)c(N)nc1Nc1cc(NC(=O)C2CC2)nnc1C(=O)NC([2H])([2H])[2H] [Example 43, (R)-4-((6-amino-5-cyclopropyl-3-(S-methyl-N-(methyl-d3)sulfonylimino)pyridin-2-yl)amino)-6-(cyclopropylcarboxamide)-N-(methyl-d3)pyridazine-3-carboxamide]
IC50 [1]: 1.1 nM

The remaining compounds from weak to strong by IC50 [1], led by results:

AUC ([2]; 10 mg/kg): 79882 ngh/mL
F ([2]; 10 mg/kg): 136.6%
Cmax ([2]; 10 mg/kg): 4850 ng/mL
MRT ([2]; 10 mg/kg): 12.7 h
half-life ([2]; 10 mg/kg): 9.28 h
IC50 [1]: 0.4 nM
AUC [3]: 22029 ngh/mL
F [3]: 109%
Cmax ([3]; male, SD, rat, plasma): 2950 ng/mL
MRT ([3]; male, SD, rat, plasma): 4.7 h
half-life ([3]; male, SD, rat, plasma): 2.65 h
Structure (SMILES): [2H]C([2H])([2H])N=[S@](C)(=O)c1cc(Cl)c(N)nc1Nc1cc(NC(=O)C2CC2)nnc1C(=O)NC([2H])([2H])[2H] [Example 40, (R)-4-((6-amino-5-chloro-3-(S-methyl-N-(methyl-d3)sulfonylimino)pyridin-2-yl)amino)-6-(cyclopropylcarboxamide)-N-(methyl-d3)pyridazine-3-carboxamide]

IC50 [1]: 0.4 nM
Structure (SMILES): [2H]C([2H])([2H])N=[S@](C)(=O)c1cc(Br)c(N)nc1Nc1cc(NC(=O)C2CC2)nnc1C(=O)NC([2H])([2H])[2H] [Example 41, (R)-4-((6-amino-5-bromo-3-(S-methyl-N-(methyl-d3)sulfonylimino)pyridin-2-yl)amino)-6-(cyclopropylcarboxamide)-N-(methyl-d3)pyridazine-3-carboxamide]

IC50 [1]: 0.3 nM
Structure (SMILES): [2H]C([2H])([2H])N=[S@](C)(=O)c1cc(C=C)c(N)nc1Nc1cc(NC(=O)C2CC2)nnc1C(=O)NC([2H])([2H])[2H] [Example 44, (R)-4-((6-amino-3-(S-methyl-N-(methyl-d3)sulfonylimino)-5-vinylpyridin-2-yl)amino)-6-(cyclopropylcarboxamide)-N-(methyl-d3)pyridazine-3-carboxamide]

IC50 [1]: 0.1 nM
Structure (SMILES): [2H]C([2H])([2H])N=[S@](C)(=O)c1cc(C#CC)c(N)nc1Nc1cc(NC(=O)C2CC2)nnc1C(=O)NC([2H])([2H])[2H] [Example 45, (R)-4-((6-amino-3-(S-methyl-N-(methyl-d3)sulfonylimino)-5-(propynyl-1-yl)pyridin-2-yl)amino)-6-(cyclopropylcarboxamide)-N-(methyl-d3)pyridazine-3-carboxamide]

IC50 [1]: 0.1 nM
Structure (SMILES): [2H]C([2H])([2H])N=[S@](C)(=O)c1cc(C#CC2CC2)c(N)nc1Nc1cc(NC(=O)C2CC2)nnc1C(=O)NC([2H])([2H])[2H] [Example 46]
